In general, GI50 refers to the concentration that inhibits growth by half.

The text below walks through data of ChEMBL document CHEMBL1201862, “PubChem BioAssay data set” (2004).

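Briefly, cells in 96-well plates were exposed to five compound concentrations for 48 h, and endpoints were estimated by linear interpolation. Abbreviation: GI50, concentration required for 50% inhibition of growth.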 The source made the active and inactive calls. Rule as the data show it: active = GI50 up to about 1.1 µM and inactive = higher.

Test systems include CCRF-CEM; SK-MEL-5; SF-295; NCI/ADR-RES; KM-20L2; OVCAR-4; SK-MEL-2; OVCAR-3; HCC 2998; IGROV-1; EKVX; A498; UACC-257; HCT-116; COLO 205; U-251; HL-60; Hs-578T; NCI-H226; SNB-75.
Common to all, as to assay: DTP human tumour cell line panel, 48 h

Take `CCN(CC)CCn1c2ccccc2c(=O)c2c(O)ccc(O)c21`: the GI50 in the assay with CCRF-CEM was 11 µM (inactive); with SK-MEL-5, 21.3 µM (inactive); in the assay on SF-295 it was 22.5 µM (inactive); with NCI/ADR-RES, 19.6 µM (inactive); in the assay on KM-20L2, > 100 µM (inactive); in the assay with OVCAR-4, 17.3 µM (inactive). The GI50 in the assay on SK-MEL-2 was 33.4 µM (inactive); in the assay with OVCAR-3, 31.5 µM (inactive); in the assay with HCC 2998, > 41.3 µM (inactive); in the assay on IGROV-1 it was 38.5 µM (inactive); in the assay with EKVX it was > 46.5 µM (inactive); with A498, 74.3 µM (inactive). For the same compound, the GI50 is 36.9 µM (inactive) in the assay on UACC-257; 31.1 µM (inactive) in the assay on HCT-116; 20.6 µM (inactive) in the assay on COLO 205; 42.1 µM (inactive) with U-251; 6.49 µM (inactive) with HL-60; 22.1 µM (inactive) with Hs-578T. In addition, the GI50 with NCI-H226 is 53.6 µM (inactive); in the assay on SNB-75 it was 22.3 µM (inactive).

In the case of `OCCCNc1ccnc2cc(Cl)ccc12`, the GI50 in the assay with CCRF-CEM, in the assay on SK-MEL-5, in the assay with SF-295, with KM-20L2, in the assay with OVCAR-4 and with SK-MEL-2 was > 100 µM (inactive) each time. The GI50 with OVCAR-3, in the assay with HCC 2998, in the assay on IGROV-1, with EKVX, in the assay with A498 and with UACC-257 was > 100 µM (inactive) throughout. Moreover, the GI50 with HCT-116 is 57.9 µM (inactive); in the assay with COLO 205 it was > 100 µM (inactive); in the assay with U-251, > 100 µM (inactive); in the assay on HL-60, > 100 µM (inactive); with NCI-H226, 61.9 µM (inactive); in the assay on SNB-75, > 100 µM (inactive).

`COc1cc2c(c(OC)c1O)-c1ccc(SC)c(=O)cc1C(NC(C)=O)CC2` (configuration not stated): the concentration for 50% growth inhibition (GI50) in the assay on CCRF-CEM was < 0.01 µM (active); in the assay with SK-MEL-5 it was < 0.01 µM (active); in the assay on SF-295, 0.0184 µM (active); with KM-20L2 it was 0.0129 µM (active); in the assay on OVCAR-4, > 40.6 µM (inactive); in the assay with SK-MEL-2, < 0.01 µM (active). Also, the GI50 with OVCAR-3 was < 0.01 µM (active); with HCC 2998, 0.0261 µM (active); in the assay on IGROV-1, 0.0593 µM (active); with EKVX, 39.7 µM (inactive); in the assay on A498, 0.195 µM (active); with UACC-257, 2.24 µM (inactive). Besides, the GI50 in the assay with HCT-116 is < 0.01 µM (active); in the assay on COLO 205, < 0.01 µM (active); in the assay on U-251 it was < 0.0146 µM (active); in the assay on HL-60, < 0.01 µM (active); with NCI-H226, 0.532 µM (active); with SNB-75, < 0.01 µM (active).

In the case of `Cc1cc2c(s1)C(=O)c1sccc1C2=O`, the 50% growth inhibitory concentration (GI50) in the assay on SK-MEL-5 is 0.162 µM (active); with SF-295 it was 0.344 µM (active); in the assay on NCI/ADR-RES, 0.459 µM (active); with KM-20L2, 2.46 µM (inactive); in the assay with OVCAR-4, 0.561 µM (active); in the assay with SK-MEL-2, 0.385 µM (active). Besides, the concentration for 50% growth inhibition (GI50) in the assay on OVCAR-3 is 0.83 µM (active); in the assay with HCC 2998, 1.75 µM (inactive); with IGROV-1 it was 1.66 µM (inactive); in the assay on EKVX, 1.84 µM (inactive); with A498, 1.78 µM (inactive); in the assay on UACC-257, 0.194 µM (active). The GI50 was 0.998 µM (active) with HCT-116; 1.9 µM (inactive) in the assay on COLO 205; 1.29 µM (inactive) in the assay with U-251; 3.34 µM (inactive) in the assay on HL-60; 0.417 µM (active) in the assay on Hs-578T; 1.76 µM (inactive) in the assay with NCI-H226. Moreover, the GI50 in the assay on SNB-75 is 0.397 µM (active).

For the compound `CNC(=O)OCc1nc(SC2CCCCO2)n(C)c1COC(=O)NC` (configuration not stated), the GI50 in the assay with CCRF-CEM, in the assay on SK-MEL-5, with SF-295, in the assay with NCI/ADR-RES, in the assay with KM-20L2 and in the assay on OVCAR-4 was > 100 µM (inactive) each time. For the same compound, the GI50 in the assay on SK-MEL-2, with OVCAR-3, in the assay on HCC 2998, in the assay on IGROV-1, in the assay with EKVX and in the assay on A498 was > 100 µM (inactive) each time. The GI50 in the assay with UACC-257, in the assay with HCT-116, in the assay on COLO 205, in the assay on U-251, in the assay on HL-60 and with NCI-H226 was > 100 µM (inactive) in each case. For the same compound, the GI50 in the assay with SNB-75 was > 100 µM (inactive).

For the compound `CC(=O)O[C@H]1C(N(C)C(=O)c2ccccc2)CC[C@]2(C)C3CC[C@@]4(C)C(CC(O)[C@@H]4C(C)N(C)C)[C@@H]3CCC12` (some centres not stated), the GI50 with CCRF-CEM, in the assay with SK-MEL-5, with SF-295, with KM-20L2, in the assay on OVCAR-4 and with SK-MEL-2 was > 100 µM (inactive) throughout. Moreover, the GI50 with OVCAR-3, in the assay on HCC 2998, in the assay on IGROV-1, with EKVX, with A498 and with UACC-257 was > 100 µM (inactive) throughout. The GI50 in the assay on HCT-116 was > 100 µM (inactive); with COLO 205, > 100 µM (inactive); in the assay with U-251, > 100 µM (inactive); with HL-60, 89.5 µM (inactive); in the assay with NCI-H226 it was > 100 µM (inactive); with SNB-75 it was > 100 µM (inactive).
